12 compounds from PubChem BioAssay (NCI) can be followed below.

Assay in all cases: inhibition of tumour cell growth, NCI panel, 48 h
In experiment [1] the test system is A549 NSCLC.
The test system of experiment [2] is ACHN renal.
Experiment [3] relates to DU-145 prostate.
In experiment [4] the test system is MDA-MB-231 breast.
Experiment [5] has as its system NCI-H226 lung.
The test system of experiment [6] is NCI-H522 lung.
The subject of experiment [7] is OVCAR-3 ovarian.
Experiment [8] relates to SK-MEL-5 melanoma.
The test system of experiment [9] is T-47D breast.
The test system of experiment [10] is UACC-62 melanoma.

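Tested at 5 concentrations; 48 h exposure; 96-well plates; endpoints linearly interpolated, else capped at highest concentration. GI50: concentration for 50% inhibition of growth. TGI denotes the concentration required for complete inhibition of growth.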 Where only a bound is given, the exact number is not on record here.

On to `C=C1C(=O)O[C@H]2[C@H]1CCC(/C=N/c1ncc(Br)cc1N)=C\CC[C@@]1(C)O[C@@H]21`, for which the GI50 in [1] is 10.9 µM; in experiment [2] it was 1.41 µM; in [3], 1.25 µM; in [4] it was 1.38 µM; in experiment [5] it was 2.88 µM; in experiment [6], 0.781 µM. For the same compound, the GI50 is 1.05 µM in experiment [7], 1.55 µM in [8], 1.55 µM in experiment [9] and 1.87 µM in [10]. Moreover, the TGI in [1] is 25.3 µM; in experiment [2], 4.9 µM; in experiment [3] it was 3.22 µM; in [4] it was 3.46 µM; in experiment [5], 11.7 µM; in experiment [6], 2.6 µM. In addition, the TGI in experiment [7] was 2.29 µM; in [8], 3.01 µM; in experiment [9], 4.9 µM; in experiment [10], 4.22 µM.
Take `Nc1nc(N)c2c(n1)NC(c1ccc(F)cc1)C1CCc3ccccc3C1=N2` (stereo not drawn): the GI50 is 10.2 µM in [1]; 4.96 µM in experiment [2]; 7.45 µM in experiment [3]; 5.8 µM in [4]; 5.97 µM in experiment [5]; 5.66 µM in experiment [6]. For the same compound, the GI50 in experiment [7] is 4.15 µM; in experiment [8] it was 0.609 µM; in [9], 3.86 µM; in experiment [10] it was 3.76 µM. Besides, the TGI turned out to be 24.3 µM in experiment [1]; 17.8 µM in experiment [2]; 19.8 µM in [3]; 19.8 µM in [4]; 24.5 µM in [5]; 21.2 µM in [6]. Besides, the TGI in experiment [7] is 16.1 µM; in experiment [8], 2.21 µM; in [9] it was 17.7 µM; in [10], 17.7 µM.
In the case of `Oc1ccccc1C=Nc1nc(SCc2ccccc2)nc2[nH]ncc12`, the GI50 in [1] is 65.2 µM; in experiment [2], 41.7 µM; in experiment [3], more than 100 µM; in experiment [4] it was 29.2 µM; in experiment [5] it was 54.3 µM; in experiment [6] it was 50.9 µM. The GI50 was 64.5 µM in experiment [7], 11.9 µM in [8], 26.7 µM in [9] and 28.1 µM in experiment [10]. In addition, the TGI in [1], in [2], in experiment [3], in [4], in experiment [5] and in experiment [6] was more than 100 µM throughout. In addition, the TGI in [7] was more than 100 µM; in [8] it was 26.3 µM; in experiment [9], 70.2 µM; in experiment [10] it was 73.7 µM.
As for `CC(NCCC(=O)N(CCC(=O)N(CCC(=O)N(CCC(=O)N(CCC(=O)N(CCC(=O)N(CCC(=O)N(CCC(=O)N(CCC(=O)N(CCC(=O)O)[C@H](C)c1ccccc1)[C@H](C)c1ccccc1)[C@H](C)c1ccccc1)[C@H](C)c1ccccc1)[C@H](C)c1ccccc1)[C@H](C)c1ccccc1)[C@H](C)c1ccccc1)[C@H](C)c1ccccc1)[C@H](C)c1ccccc1)c1ccccc1` (stereo partly drawn), the GI50 was 3.56 µM in experiment [1]; 5.05 µM in experiment [2]; 2.34 µM in experiment [3]; 1.44 µM in [4]; 3.62 µM in [5]; 2.12 µM in [6]. The GI50 is 2.04 µM in [7], 1.16 µM in experiment [8], 3.42 µM in experiment [9] and 1.32 µM in [10]. The TGI in experiment [1] is more than 75 µM; in experiment [2] it was more than 43.9 µM; in experiment [3], 12.3 µM; in [4], 4.39 µM; in experiment [5], 20.2 µM; in experiment [6] it was 24.5 µM. Further, the TGI in [7] is 19.1 µM; in [8], 2.36 µM; in experiment [9], more than 75 µM; in [10], 2.96 µM.
Turning to `CNCCNc1c2c(c(NCCNC)c3[nH]ccc13)C(=O)c1ccccc1C2=O`, the GI50 is 0.0904 µM in experiment [1]; 0.0434 µM in experiment [2]; 0.526 µM in experiment [3]; 0.1 µM in experiment [4]; 0.215 µM in [5]; 0.117 µM in experiment [6]. Moreover, the GI50 in experiment [7] was 0.174 µM; in experiment [8], 0.421 µM; in experiment [9], 11.4 µM; in experiment [10], 0.231 µM. In addition, the TGI in experiment [1] amounted to 0.427 µM; in [2], 0.306 µM; in [3], 1.31 µM; in [4], 0.33 µM; in experiment [5], 1.84 µM; in [6], 0.339 µM. In addition, the TGI in experiment [7] is 0.887 µM; in experiment [8], 0.901 µM; in experiment [9] it was more than 27 µM; in experiment [10] it was 1.05 µM.
On to `O=C(O)C1C(C(=O)O)C23CC2(C(=O)O)C2(C(=O)O)CCC3=C3CCCC312` (stereo not drawn), for which the TGI in experiment [1] is more than 100 µM; in experiment [2] it was 59.2 µM; in experiment [3] it was 34.1 µM; in experiment [4] it was 41 µM; in experiment [5], 27.5 µM; in experiment [6] it was 16 µM. The TGI turned out to be 11.7 µM in [7], 18.2 µM in experiment [8], 53.5 µM in [9] and 23.5 µM in [10].
With `COc1cc(NC(=O)CSc2nc3ccc(C)cc3c(=O)n2Cc2ccccc2)cc(OC)c1OC`, the GI50 was 10.5 µM in experiment [1]; 3.49 µM in [2]; 84.7 µM in experiment [3]; 3.42 µM in experiment [4]; 3.2 µM in experiment [5]; 4.63 µM in [6]. Besides, the GI50 in [7] was 9.36 µM; in experiment [8] it was 3.67 µM; in experiment [9] it was 4.01 µM; in experiment [10], 2.93 µM. The TGI in experiment [1] is more than 100 µM; in [2] it was more than 100 µM; in experiment [3], more than 100 µM; in experiment [4], more than 100 µM; in [5], 22.3 µM; in experiment [6] it was 47 µM. The TGI was more than 100 µM in experiment [7], 23.7 µM in experiment [8], 66.9 µM in experiment [9] and more than 100 µM in experiment [10].
`CN(C)CCCN1c2ccccc2C(C)(C)c2ccccc21`: the TGI in [1] turned out to be 30.7 µM; in experiment [2], 28.6 µM; in experiment [3] it was 31.2 µM; in experiment [4], 27.8 µM; in [5], 29.7 µM; in [6], 28.6 µM. The TGI amounted to 28.9 µM in experiment [7], 26.2 µM in [8], 38.7 µM in [9] and 25.8 µM in experiment [10].
In the case of `COc1ccc(/C=C(\C#N)n2nnc3ccccc32)cc1`, the GI50 in [1] was 0.235 µM; in [2], 0.434 µM; in [3] it was 0.323 µM; in [4], 0.525 µM; in [5] it was 1.11 µM; in [6], 0.0336 µM. In addition, the GI50 was 0.046 µM in experiment [7], 0.282 µM in [8], 0.0865 µM in experiment [9] and 0.0893 µM in experiment [10]. Further, the TGI is more than 100 µM in experiment [1]; 17.2 µM in experiment [2]; 3.47 µM in experiment [4]; 21.2 µM in experiment [5]; more than 34.1 µM in experiment [6]; 2.89 µM in [8]. Besides, the TGI in [9] was determined as 72.9 µM; in experiment [10], 19.7 µM.
In the case of `COc1ccc(-n2cc(-c3cc(OC)c(OC)c(OC)c3)nc2SCc2ccccc2)cc1OC`, the GI50 in [1] is 48.8 µM; in experiment [2], more than 92.9 µM; in experiment [3] it was more than 100 µM; in experiment [4] it was more than 63.6 µM; in [5], more than 78.7 µM; in experiment [6], 41.8 µM. For the same compound, the GI50 in experiment [7] was more than 100 µM; in experiment [8], 15.6 µM; in experiment [9], 12.3 µM; in experiment [10], 44.9 µM. The TGI in experiment [1], in experiment [2], in [3], in experiment [4], in experiment [5] and in [6] was more than 100 µM in each case. In addition, the TGI in [7], in experiment [8], in [9] and in experiment [10] was more than 100 µM throughout.
Regarding `CCN(CC)CCn1c2ccccc2c(=O)c2c(O)ccc(O)c21`, the TGI in experiment [1] was more than 100 µM; in [2], 57.8 µM; in experiment [3], more than 100 µM; in experiment [4] it was 29.9 µM; in [5] it was more than 56.2 µM; in experiment [6], 35.9 µM. Also, the TGI was determined as 47.6 µM in experiment [7], 45.5 µM in experiment [8], 34.3 µM in experiment [9] and 52.8 µM in experiment [10].
Take `OC(CNCC1CCCO1)Cn1c2ccc(Cl)cc2c2cc(Cl)ccc21` (stereo not drawn): the GI50 was 1.87 µM in [1]; 1.68 µM in experiment [2]; 1.83 µM in experiment [3]; 1.75 µM in experiment [4]; 2.42 µM in [5]; 1.89 µM in experiment [6]. In addition, the GI50 in experiment [7] was 1.82 µM; in [8], 1.77 µM; in experiment [9] it was 1.91 µM; in [10] it was 1.78 µM. For the same compound, the TGI in [1] is 3.69 µM; in experiment [2] it was 3.16 µM; in experiment [3] it was 3.37 µM; in experiment [4], 3.5 µM; in experiment [5], 8.1 µM; in [6], 3.6 µM. Further, the TGI in [7] stood at 3.28 µM; in experiment [8] it was 3.26 µM; in experiment [9] it was 3.89 µM; in [10] it was 3.46 µM.
